Test system: striatum of normal Sprague-Dawley (SD) rats
Test: Cytotoxic tissue response after CED in rat striatum, T2-weighted and diffusion-weighted MRI 24 hours post treatment
Protocol: The resultant solution was infused into the striatum of normal Sprague-Dawley (SD) rats (males, 250-300 grams). T1-weighted MR images were acquired immediately post treatment to assess the extent of convection. Additionally, T2-weighted and diffusion-weighted MR images were acquired 24 hours post treatment to assess the response of the tissue and its correlation to the extent of convection.
In order to obtain a wide range in volumes of distribution, the infusion times were varied between 17 to 60 minutes. 13 rats were treated with Carboplatin (4 mg/ml, 17 minutes infusion). In order to obtain a wide range in volumes of distributions, in 6 out of those, the composition viscosity was increased by adding sucrose to the solution prior to infusion (Carboplatin 4 mg/ml, sucrose concentration-12%).
Early assessment of tissue response was performed using diffusion-weighted and T2-weighted MR images. The diffusion-weighted images were obtained by acquiring conventional T2-weighted images with the addition of diffusion-weighting gradients that filter out the signal from high mobility water molecules and sensitize the MR images to molecular diffusion/mobility [Stejskal et al. supra]. Regions of accumulated liquids or severe necrosis appear dark in diffusion-weighted MRI, while regions of slow water accumulation, such as in the case of intracellular water accumulation or inflammation, appear brighter.
The diffusion-weighted and T2-weighted MR images were obtained by a General Electric™ 3.0 T MRI machine with 10.4M 1× operating system, gradients intensity of up to 4.3 Gauss/cm and line scan diffusion-weighted imaging [Gudbjartsson et al., “Line scan diffusion imaging”, Magn. Reson. Med. 36:509-519, 1996] acquisition software package. Specially designed animal volume coils of 5 cm diameter were used for data acquisition.
The T2-weighted fast spin echo (FSE) MR images were acquired with: 256×128 matrix, FOV=12×9 cm^2, TR=3000 ms, TE=90 ms, and 2 mm slices with 0.5 mm gap. […]

Structure (SMILES) | histology of en block-resected lesion from rat brain (rat, in vivo) | tissue toxicity (rat, in vivo) | enhancement in diffusion-weighted MR images (cases of efficient convection, 24 hours post treatment)
CC(=O)O[C@H]1C(=O)[C@@]2(C)[C@H]([C@H](OC(=O)c3ccccc3)[C@]3(O)C[C@H](OC(=O)[C@H](O)[C@@H](NC(=O)c4ccccc4)c4ccccc4)C(C)=C1C3(C)C)[C@]1(OC(C)=O)CO[C@@H]1C[C@@H]2O [Taxol®, Taxol] | Severe damage covering most of the striatum is seen with widespread necrosis and early gliotic changes | severe tissue toxicity | –
N.N.O=C([O-])C1(C(=O)[O-])CCC1.[Pt+2] [Carboplatin] | – | – | significant enhancement

Source: patent US8391959B2, “Composition for improving efficiency of drug delivery” (Tel HaShomer Medical Research Infrastructure and Services …, priority 2004, dated 2013)
